Experimental data as given in paper PMC12181400, “Leveraging viral genome sequences and machine learning models for identification of potentially selective antiviral agents” (Communications Chemistry, 2025).
Counter-ions that a name gives are not always drawn. Like-named read-outs stand apart in the source and are kept apart here.

How the values were obtained:
IN = system: IN; set-up: method as in pmid 19265512; conditions: in vitro strand transfer assay; ref pmid 19265512; read-out: IC50, inhibition of IN; cited from earlier work
MT-4 cells = system: MT-4 cells; set-up: method as in pmid 19265512; conditions: MT-4 cells in the presence of 20% NHS; ref pmid 19265512; read-out: antiviral EC90; cited from earlier work
[1] = system: SARS-CoV-2 Spike protein containing PPs, entry into HEK293-ACE2 cells; experiment: microbe, parasite or virus in culture; format: cell-based; conditions: PP entry, HEK293-ACE2, 48 h, mean ± SD of two independent experiments; for IC50: Severe acute respiratory syndrome coronavirus 2, 11 concentrations
[2] = system: cell viability (tox21-ap1-agonist-p1); conditions: cited from earlier work
[3] = system: cell viability (tox21-ar-mda-kb2-luc-agonist-p3); conditions: cited from earlier work
[4] = system: cell viability (tox21-ar-mda-kb2-luc-antagonist-p2); conditions: cited from earlier work
[5] = system: cell viability (tox21-are-bla-p1); conditions: cited from earlier work
[6] = system: cell viability (tox21-car-agonist-p1); conditions: cited from earlier work
[7] = system: cell viability (tox21-car-antagonist-p1); conditions: cited from earlier work
[8] = system: wild-type (WT) and drug-resistant HIV-1 isolates; set-up: method as in pmid 18043758; conditions: multiple wild-type and drug-resistant HIV-1 isolates; ref pmid 18043758; cited from earlier work
[9] = system: hepatitis B surface antigen (HBsAg) secretion; set-up: method as in PMID 17723297; conditions: Hep G2.2.15 cell line; read-out: IC50, inhibition of HBsAg secretion; cited from earlier work
[10] = curve rank −9 to 9, 0 = inactive, ref NCATS Tox21 public data browser

Cn1c(=O)c(C(=O)NCCO)c(O)c2ncc(Cc3ccc(F)cc3)cc21 [GSK-364735]
IC50 (IN): 8 nM
EC90 (MT-4 cells): 40 nM

N=c1ccn(C2OC(COP(=O)(O)O)C(O)C2O)c(=O)[nH]1 (centres unmarked) [NCGC00014029]
efficacy [1]: −76.63 ± 14.92%
IC50 [1]: 1310 ± 320 nM

COc1ccc(-c2nc3ccccc3n2Cc2ccccc2)cc1COc1ccc(NC(C)=O)cc1 [NCGC00166392]
efficacy [1]: −83.25 ± 8.42%
IC50 [1]: 1370 nM

COc1ccc(-c2csc3ncnc(N(C)CCO)c23)cc1 [NCGC00608516]
efficacy [1]: −93.10 ± 32.33%
IC50 [1]: 11700 ± 2820 nM

COc1ccc(C(CNC(=O)c2ccc3ccccc3n2)N2CCCC2)cc1 (centres unmarked) [NCGC00622469]
efficacy [1]: −64.06 ± 9.68%
IC50 [1]: 5910 ± 7000 nM

O=C(Nc1nc(-c2ccc(F)cc2)cs1)c1c(F)cccc1F [NCGC00633127]
efficacy [1]: −67.42 ± 5.30%
IC50 [1]: 4590 ± 370 nM

Cc1ncc([N+](=O)[O-])n1CC(C)O (centres unmarked) [Secnidazole]
tox21-ap1-agonist-p1-viability (curve rank) [2, 10]: 0
tox21-ar-mda-kb2-luc-agonist-p3-viability (curve rank) [3, 10]: 0
tox21-ar-mda-kb2-luc-antagonist-p2-viability (curve rank) [4, 10]: 0
tox21-are-bla-p1-viability (curve rank) [5, 10]: 0
tox21-car-agonist-p1-viability (curve rank) [6, 10]: 0
tox21-car-antagonist-p1-viability (curve rank) [7, 10]: 0

C#CCN(C)[C@H](C)Cc1ccccc1 [Selegiline hydrochloride]
tox21-ap1-agonist-p1-viability (curve rank) [2, 10]: 0
tox21-ar-mda-kb2-luc-agonist-p3-viability (curve rank) [3, 10]: 0
tox21-ar-mda-kb2-luc-antagonist-p2-viability (curve rank) [4, 10]: 0
tox21-are-bla-p1-viability (curve rank) [5, 10]: 0
tox21-car-agonist-p1-viability (curve rank) [6, 10]: 0
tox21-car-antagonist-p1-viability (curve rank) [7, 10]: 0

Cc1cc(CC(=O)[O-])n(C)c1C(=O)c1ccc(Cl)cc1.[Na+] [Sodium zomepirac]
tox21-ap1-agonist-p1-viability (curve rank) [2, 10]: 0
tox21-ar-mda-kb2-luc-agonist-p3-viability (curve rank) [3, 10]: 0
tox21-ar-mda-kb2-luc-antagonist-p2-viability (curve rank) [4, 10]: 0
tox21-are-bla-p1-viability (curve rank) [5, 10]: 0
tox21-car-agonist-p1-viability (curve rank) [6, 10]: 0
tox21-car-antagonist-p1-viability (curve rank) [7, 10]: 0

COc1cc(NS(=O)(=O)c2ccc(N)cc2)nc(OC)n1 [Sulfadimethoxine]
tox21-ap1-agonist-p1-viability (curve rank) [2]: 0
tox21-ar-mda-kb2-luc-agonist-p3-viability (curve rank) [3]: 0
tox21-ar-mda-kb2-luc-antagonist-p2-viability (curve rank) [4]: 0
tox21-are-bla-p1-viability (curve rank) [5]: 0
tox21-car-agonist-p1-viability (curve rank) [6]: 0
tox21-car-antagonist-p1-viability (curve rank) [7]: 0

[H]/N=C(/N)NS(=O)(=O)c1ccc(N)cc1 [Sulfaguanidine]
tox21-ap1-agonist-p1-viability (curve rank) [2]: 0
tox21-ar-mda-kb2-luc-agonist-p3-viability (curve rank) [3]: 0
tox21-ar-mda-kb2-luc-antagonist-p2-viability (curve rank) [4]: 0
tox21-are-bla-p1-viability (curve rank) [5]: 0
tox21-car-agonist-p1-viability (curve rank) [6]: 0
tox21-car-antagonist-p1-viability (curve rank) [7]: 0

Nc1ccc(S(=O)(=O)Nc2ccnn2-c2ccccc2)cc1 [Sulfaphenazole]
tox21-ap1-agonist-p1-viability (curve rank) [2]: 0
tox21-ar-mda-kb2-luc-agonist-p3-viability (curve rank) [3]: 0
tox21-ar-mda-kb2-luc-antagonist-p2-viability (curve rank) [4]: 0
tox21-are-bla-p1-viability (curve rank) [5]: 0
tox21-car-agonist-p1-viability (curve rank) [6]: 0
tox21-car-antagonist-p1-viability (curve rank) [7]: 0

Nc1ccc(S(=O)(=O)Nc2ccccn2)cc1 [Sulfapyridine]
tox21-ap1-agonist-p1-viability (curve rank) [2]: 0
tox21-ar-mda-kb2-luc-agonist-p3-viability (curve rank) [3]: 0
tox21-ar-mda-kb2-luc-antagonist-p2-viability (curve rank) [4]: 0
tox21-are-bla-p1-viability (curve rank) [5]: 0
tox21-car-agonist-p1-viability (curve rank) [6]: 0
tox21-car-antagonist-p1-viability (curve rank) [7]: 0

O=C1C(CC[S+]([O-])c2ccccc2)C(=O)N(c2ccccc2)N1c1ccccc1 (centres unmarked) [Sulfinpyrazone]
tox21-ap1-agonist-p1-viability (curve rank) [2]: 0
tox21-ar-mda-kb2-luc-agonist-p3-viability (curve rank) [3]: 0
tox21-ar-mda-kb2-luc-antagonist-p2-viability (curve rank) [4]: 0
tox21-are-bla-p1-viability (curve rank) [5]: 0
tox21-car-agonist-p1-viability (curve rank) [6]: 0
tox21-car-antagonist-p1-viability (curve rank) [7]: 0

CCCCC1(COC(=O)CCC(=O)O)C(=O)N(c2ccccc2)N(c2ccccc2)C1=O [Suxibuzone]
tox21-ap1-agonist-p1-viability (curve rank) [2]: 0
tox21-ar-mda-kb2-luc-agonist-p3-viability (curve rank) [3]: 0
tox21-ar-mda-kb2-luc-antagonist-p2-viability (curve rank) [4]: 0
tox21-are-bla-p1-viability (curve rank) [5]: 0
tox21-car-agonist-p1-viability (curve rank) [6]: 0
tox21-car-antagonist-p1-viability (curve rank) [7]: 0

Cc1scc2c1N(C(=O)CN1CCN(C)CC1)c1ccccc1NC2=O [Telenzepine]
tox21-ap1-agonist-p1-viability (curve rank) [2]: 0
tox21-ar-mda-kb2-luc-agonist-p3-viability (curve rank) [3]: 0
tox21-ar-mda-kb2-luc-antagonist-p2-viability (curve rank) [4]: 0
tox21-are-bla-p1-viability (curve rank) [5]: 0
tox21-car-agonist-p1-viability (curve rank) [6]: 0
tox21-car-antagonist-p1-viability (curve rank) [7]: 0

c1ccc2c(c1)CCCC2C1=NCCN1 (centres unmarked) [Tetrahydrozoline hydrochloride]
tox21-ap1-agonist-p1-viability (curve rank) [2]: 0
tox21-ar-mda-kb2-luc-agonist-p3-viability (curve rank) [3]: 0
tox21-ar-mda-kb2-luc-antagonist-p2-viability (curve rank) [4]: 0
tox21-are-bla-p1-viability (curve rank) [5]: 0
tox21-car-agonist-p1-viability (curve rank) [6]: 0
tox21-car-antagonist-p1-viability (curve rank) [7]: 0

CC(C(=O)O)c1ccc(C(=O)c2ccccc2)s1 (centres unmarked) [Tiaprofenic acid]
tox21-ap1-agonist-p1-viability (curve rank) [2]: 0
tox21-ar-mda-kb2-luc-agonist-p3-viability (curve rank) [3]: 0
tox21-ar-mda-kb2-luc-antagonist-p2-viability (curve rank) [4]: 0
tox21-are-bla-p1-viability (curve rank) [5]: 0
tox21-car-agonist-p1-viability (curve rank) [6]: 0
tox21-car-antagonist-p1-viability (curve rank) [7]: 0

CCS(=O)(=O)CCn1c([N+](=O)[O-])cnc1C [Tinidazole]
tox21-ap1-agonist-p1-viability (curve rank) [2]: 0
tox21-ar-mda-kb2-luc-agonist-p3-viability (curve rank) [3]: 0
tox21-ar-mda-kb2-luc-antagonist-p2-viability (curve rank) [4]: 0
tox21-are-bla-p1-viability (curve rank) [5]: 0
tox21-car-agonist-p1-viability (curve rank) [6]: 0
tox21-car-antagonist-p1-viability (curve rank) [7]: 0

COc1cccc(C2(O)CCCCC2CN(C)C)c1.Cl (centres unmarked) [Tramadol hydrochloride]
tox21-ap1-agonist-p1-viability (curve rank) [2, 10]: 0
tox21-ar-mda-kb2-luc-agonist-p3-viability (curve rank) [3, 10]: 0
tox21-ar-mda-kb2-luc-antagonist-p2-viability (curve rank) [4, 10]: 0
tox21-are-bla-p1-viability (curve rank) [5, 10]: 0
tox21-car-agonist-p1-viability (curve rank) [6, 10]: 0
tox21-car-antagonist-p1-viability (curve rank) [7, 10]: 0

COc1cc(C(=O)NCc2ccc(OCCN(C)C)cc2)cc(OC)c1OC [Trimethobenzamide hydrochloride]
tox21-ap1-agonist-p1-viability (curve rank) [2]: 0
tox21-ar-mda-kb2-luc-agonist-p3-viability (curve rank) [3]: 0
tox21-ar-mda-kb2-luc-antagonist-p2-viability (curve rank) [4]: 0
tox21-are-bla-p1-viability (curve rank) [5]: 0
tox21-car-agonist-p1-viability (curve rank) [6]: 0
tox21-car-antagonist-p1-viability (curve rank) [7]: 0

CC[C@]12CCCN3CCc4c(n(c5ccccc45)[C@@](O)(C(=O)OC)C1)[C@@H]32 [Vincamine]
tox21-ap1-agonist-p1-viability (curve rank) [2, 10]: 0
tox21-ar-mda-kb2-luc-agonist-p3-viability (curve rank) [3, 10]: 0
tox21-ar-mda-kb2-luc-antagonist-p2-viability (curve rank) [4, 10]: 0
tox21-are-bla-p1-viability (curve rank) [5, 10]: 0
tox21-car-agonist-p1-viability (curve rank) [6, 10]: 0
tox21-car-antagonist-p1-viability (curve rank) [7, 10]: 0

COc1cc(-c2ccc(=O)[nH]n2)ccc1OC(F)F [Zardaverine]
tox21-ap1-agonist-p1-viability (curve rank) [2, 10]: 0
tox21-ar-mda-kb2-luc-agonist-p3-viability (curve rank) [3, 10]: 0
tox21-ar-mda-kb2-luc-antagonist-p2-viability (curve rank) [4, 10]: 0
tox21-are-bla-p1-viability (curve rank) [5, 10]: 0
tox21-car-agonist-p1-viability (curve rank) [6, 10]: 0
tox21-car-antagonist-p1-viability (curve rank) [7, 10]: 0

CC1=C2[C@H]3OC(=O)[C@@H](C)[C@@H]3CC[C@@]2(C)C=CC1=O [alpha-Santonin]
tox21-ap1-agonist-p1-viability (curve rank) [2, 10]: 0
tox21-ar-mda-kb2-luc-agonist-p3-viability (curve rank) [3, 10]: 0
tox21-ar-mda-kb2-luc-antagonist-p2-viability (curve rank) [4, 10]: 0
tox21-are-bla-p1-viability (curve rank) [5, 10]: 0
tox21-car-agonist-p1-viability (curve rank) [6, 10]: 0
tox21-car-antagonist-p1-viability (curve rank) [7, 10]: 0

C=C(C)[C@@H]1CC[C@]2(C(=O)O)CC[C@]3(C)[C@H](CC[C@@H]4[C@@]5(C)CC[C@H](OC(=O)CC(C)(C)C(=O)O)C(C)(C)[C@@H]5CC[C@]43C)[C@@H]12 [bevirimat, 3-O-(3',3'-dimethylsuccinyl) betulinic acid]
in vitro antiviral activity [8]: 10 nM

COc1cc2c3c(c1O)C1(C=CC(=O)C=C1)CC3N(C)CC2 (centres unmarked) [glaziovine]
IC50 [9]: 8000 nM
